Data published in ChEMBL document CHEMBL4837249, “Discovery of Potent Antiallergic Agents Based on an o-Aminopyridinyl Alkynyl Scaffold” (J Med Chem, 2021).

Columns and labels:
[1] = system: RBL-2H3; assay: Antiallergic activity against anti-DNP-IgE sensitized rat RBL-2H3 cells assessed as […] of degranulation by measuring beta-hexosaminidase release using P-nitrophenyl-N-acetyl-D-glucosamide as substrate at 1 uM measured after 1 hr by microplate reader relative to control; assay type: functional
[2] = system: RBL-2H3; assay: Antiallergic activity against anti-DNP-IgE sensitized rat RBL-2H3 cells assessed as […] of degranulation by measuring beta-hexosaminidase release using P-nitrophenyl-N-acetyl-D-glucosamide as substrate at 0.2 uM measured after 1 hr by microplate reader relative to control; assay type: functional
[3] = system: RBL-2H3; assay: Antiallergic activity against anti-DNP-IgE sensitized rat RBL-2H3 cells assessed as […] of degranulation by measuring beta-hexosaminidase release using P-nitrophenyl-N-acetyl-D-glucosamide as substrate at 0.04 uM measured after 1 hr by microplate reader relative to control; assay type: functional
[4] = system: RBL-2H3; assay: Antiallergic activity against anti-DNP-IgE sensitized rat RBL-2H3 cells assessed as […] of degranulation by measuring beta-hexosaminidase release using P-nitrophenyl-N-acetyl-D-glucosamide as substrate measured after 1 hr by microplate reader; assay type: functional, cell-based; conditions: RBL-2H3, 1 h
[5] = Therapeutic index, ratio of CC50 for rat RBL2H3 cells to IC50 for Antiallergic activity against anti-DNP-IgE sensitized rat RBL-2H3 cells; assay type: toxicity; conditions: read-out: TI
[6] = target: Macrophage colony-stimulating factor 1 receptor (Homo sapiens, UniProt P07333); assay: Inhibition of human recombinant CSF1R using ATP/Ulight-TK peptide incubated for 15 mins
Sequence of Macrophage colony-stimulating factor 1 receptor (P07333 whole entry): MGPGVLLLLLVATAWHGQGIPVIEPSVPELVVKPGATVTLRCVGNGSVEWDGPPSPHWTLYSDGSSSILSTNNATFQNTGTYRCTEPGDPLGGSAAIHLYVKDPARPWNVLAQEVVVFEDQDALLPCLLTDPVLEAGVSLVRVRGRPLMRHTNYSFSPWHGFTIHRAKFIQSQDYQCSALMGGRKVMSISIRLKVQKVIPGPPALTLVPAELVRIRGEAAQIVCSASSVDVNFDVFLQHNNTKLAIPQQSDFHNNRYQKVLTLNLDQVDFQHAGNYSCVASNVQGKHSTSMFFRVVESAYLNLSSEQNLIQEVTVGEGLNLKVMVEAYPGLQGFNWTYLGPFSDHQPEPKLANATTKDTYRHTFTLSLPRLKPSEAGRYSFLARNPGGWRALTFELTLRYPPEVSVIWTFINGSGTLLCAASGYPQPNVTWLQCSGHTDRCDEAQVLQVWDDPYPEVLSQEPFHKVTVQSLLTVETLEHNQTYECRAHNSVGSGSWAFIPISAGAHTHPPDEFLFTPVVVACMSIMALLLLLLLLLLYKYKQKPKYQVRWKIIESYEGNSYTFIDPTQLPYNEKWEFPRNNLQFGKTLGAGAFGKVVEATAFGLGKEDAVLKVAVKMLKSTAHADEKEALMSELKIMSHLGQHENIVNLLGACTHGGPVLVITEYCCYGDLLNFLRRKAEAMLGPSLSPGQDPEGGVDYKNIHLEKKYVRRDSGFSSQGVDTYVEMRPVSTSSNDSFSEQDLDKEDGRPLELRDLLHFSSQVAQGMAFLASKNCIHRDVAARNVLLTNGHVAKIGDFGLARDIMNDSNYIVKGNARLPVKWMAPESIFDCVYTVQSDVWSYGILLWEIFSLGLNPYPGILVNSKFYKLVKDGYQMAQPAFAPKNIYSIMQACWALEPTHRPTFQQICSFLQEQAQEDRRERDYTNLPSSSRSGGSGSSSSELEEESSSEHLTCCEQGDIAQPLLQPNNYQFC

Structure (SMILES) | inhibition at 1 µM [1] | inhibition at 0.2 µM [2] | inhibition at 0.04 µM [3] | IC50 [4] | selectivity ratio [5] | IC50 [6]
COc1cc(NC(=O)c2ccc(C(F)(F)F)c(C#Cc3cc(-c4cnn(C)c4)cnc3N)c2)cc(OC)c1 | 15.7% | -2.84% | -3.24% |  |  | 
Cc1ccc(C(=O)Nc2ccc(CN3CCN(C)CC3)c(C(F)(F)F)c2)cc1C#Cc1cnc2cccnn12 [PONATINIB] |  |  |  | 148 nM |  | 
COc1cc(NC(=O)c2cccc(C#Cc3cc(-c4cnn(C)c4)cnc3N)c2OC)cc(OC)c1 | 22.8% | 6.7% | 0% |  |  | 
Cc1ccc(C(=O)Nc2ccc(C(F)(F)F)cc2)cc1C#Cc1cc(-c2cnn(C)c2)cnc1N | 78.4% | 60.8% | 51.1% | 6.08 nM | 2.3 | 
Cc1ccc(C(=O)Nc2ccc(C(F)(F)F)c(C(F)(F)F)c2)cc1C#Cc1cc(-c2cnn(C)c2)cnc1N | 144% |  | 40.5% | 58.8 nM |  | 
COc1cccc(NC(=O)c2ccc(C)c(C#Cc3cc(-c4cnn(C)c4)cnc3N)c2)c1 | 125% | 80.5% |  | 21.9 nM |  | 
Cc1ccc(C(=O)Nc2ccccn2)cc1C#Cc1cc(-c2cnn(C)c2)cnc1N | 60.6% | 21.1% | 2.86% |  |  | 
Cc1ccc(C(=O)Nc2ccc(Cl)cc2)cc1C#Cc1cc(-c2cnn(C)c2)cnc1N | 89.5% | 68.6% | 52% | 23.9 nM | 11.3 | 
COc1cc(NC(=O)c2ccc(F)c(C#Cc3cc(-c4cnn(C)c4)cnc3N)c2)cc(OC)c1 | 30.9% | 0.83% | 2.34% |  |  | 
COc1cc(NC(=O)c2ccc(OC)c(C#Cc3cc(-c4cnn(C)c4)cnc3N)c2)cc(OC)c1 | 34% | 18% | 11% |  |  | 
Cc1ccc(C(=O)Nc2ccccc2)cc1C#Cc1cc(-c2cnn(C)c2)cnc1N | 65.3% | 40.9% | 28.6% |  |  | 
COc1cc(NC(=O)c2cccc(C#Cc3cc(-c4cnn(C)c4)cnc3N)c2F)cc(OC)c1 | 33% | 24.8% | 34% |  |  | 
Cc1ccc(C(=O)Nc2ccc(Cl)c(C(F)(F)F)c2)cc1C#Cc1cc(-c2cnn(C)c2)cnc1N | 170% | 145% | 76.1% | 13 nM | 13.9 | 30 nM
Cc1ccc(C(=O)Nc2ccccc2Cl)cc1C#Cc1cc(-c2cnn(C)c2)cnc1N | 25% | -5.24% | -4.58% |  |  | 
COc1cc(NC(=O)c2ccc(C)c(C#Cc3cc(Cl)cnc3N)c2)cc(OC)c1 | 50.9% | 37% | -1.58% |  |  | 
COc1ccccc1NC(=O)c1ccc(C)c(C#Cc2cc(-c3cnn(C)c3)cnc2N)c1 | 73.5% |  | 10.2% |  |  | 
Cc1ccc(C(=O)Nc2cccc(Cl)c2)cc1C#Cc1cc(-c2cnn(C)c2)cnc1N | 118% | 82.9% | 49% | 6.54 nM | 3.8 | 
COc1cc(NC(=O)c2ccc(C(C)C)c(C#Cc3cc(-c4cnn(C)c4)cnc3N)c2)cc(OC)c1 | -1.01% | -7.82% | -8.56% |  |  | 

Structure (SMILES) | inhibition at 1 µM [1] | inhibition at 0.2 µM [2] | inhibition at 0.04 µM [3] | IC50 [4] | selectivity ratio [5] | IC50 [6]
CNC(=O)c1cnc(N)c(C#Cc2cc(C(=O)Nc3cc(OC)cc(OC)c3)ccc2C)c1 | 66.2% | 26.8% | 14.7% |  |  | 
CCNc1ncc(-c2cnn(C)c2)cc1C#Cc1cc(C(=O)Nc2cc(OC)cc(OC)c2)ccc1C | 95.4% | 45.3% | 16.8% |  |  | 
COc1cc(NC(=O)c2ccc(C)c(C#Cc3cc(-c4cnn(C)c4)cnc3N)c2)cc(OC)c1OC | 131% | 103% | 82.6% | 7.43 nM | 2.2 | 8 nM
Cc1ccc(C(=O)Nc2ccc3c(c2)OCCO3)cc1C#Cc1cc(-c2cnn(C)c2)cnc1N | 132% | 102% | 66.8% | 67.3 nM |  | 
Cc1ccc(C(=O)Nc2cccc(OC(F)(F)F)c2)cc1C#Cc1cc(-c2cnn(C)c2)cnc1N | 150% | 138% | 81.1% | 7.15 nM | 12.9 | 24 nM
Cc1ccc(C(=O)Nc2cccc(C(F)(F)F)c2)cc1C#Cc1cc(-c2cnn(C)c2)cnc1N | 113% | 109% | 88.9% | 2.75 nM | 2.5 | 
FC(F)(F)c1ccc(CNc2ccc(Cc3c[nH]c4ncc(Cl)cc34)cn2)cn1 [PEXIDARTINIB] |  |  |  | > 1000 nM |  | 
COc1cc(NC(=O)c2ccc(C)c(C#Cc3cc(C(N)=O)cnc3N)c2)cc(OC)c1 | 74.2% | 13.7% | 10.8% |  |  | 
COc1cc(NC(=O)c2ccc(Br)c(C#Cc3cc(-c4cnn(C)c4)cnc3N)c2)cc(OC)c1 | 79.2% | 36.6% | 22.6% |  |  | 
Cc1ccc(C(=O)Nc2ccc(Cl)c(Cl)c2)cc1C#Cc1cc(-c2cnn(C)c2)cnc1N | 65% | 40.6% | 39.8% |  |  | 
COc1cc(NC(=O)c2cccc(C#Cc3cc(-c4cnn(C)c4)cnc3N)c2)cc(OC)c1 | 41% | 272% | 1.08% |  |  | 
COc1cc(NC(=O)c2ccc(C)c(C#Cc3cccnc3N)c2)cc(OC)c1 | 55.9% | 3.01% | 4.26% |  |  | 
COc1cc(NC(=O)c2cccc(C#Cc3cc(-c4cnn(C)c4)cnc3N)c2C)cc(OC)c1 | 18.3% | 8.75% | 3.11% |  |  | 
COc1cc(NC(=O)c2ccc(C)c(C#Cc3cc(-c4cnn(C)c4)cnc3N)c2)cc(OC)c1 | 108% | 61.7% | 20.1% | 25.8 nM | 15.4 | 
COc1ccc(NC(=O)c2ccc(C)c(C#Cc3cc(-c4cnn(C)c4)cnc3N)c2)cc1OC | 82.2% | 49.7% | 23.7% |  |  | 
COc1cc(NC(=O)c2ccc(Cl)c(C#Cc3cc(-c4cnn(C)c4)cnc3N)c2)cc(OC)c1 | 52.5% | 9.97% | 0% |  |  | 
COc1ccc(NC(=O)c2ccc(C)c(C#Cc3cc(-c4cnn(C)c4)cnc3N)c2)cc1 | 101% | 66.9% | 41.5% | 10.6 nM |  | 
Cc1ccc(C(=O)NC2CCCCC2)cc1C#Cc1cc(-c2cnn(C)c2)cnc1N | 63.7% |  | 0.18% |  |  | 
